Patent US20230263822A1, “MODULATION OF FACTOR 11 EXPRESSION” (Ionis Pharmaceuticals, Inc., priority 2008, published 2023)

How the values were obtained:
[1] = test system: Factor 11 activity; test: Factor 11 protein activity, F11 assay based on clotting time (Example 45); format: in vivo, cynomolgus monkeys; settings: escalating dose regimen
Method: (§1) Groups, each consisting of two male and three female monkeys, were injected subcutaneously with ISIS 416838, ISIS 416850, ISIS 416858, ISIS 416864, or ISIS 417002 in escalating doses. Antisense oligonucleotide was administered to the monkeys at 5 mg/kg three times per a week for week 1; 5 mg/kg twice per week for weeks 2 and 3; 10 mg/kg three times per week for week 4; 10 mg/kg twice per week for weeks 5 and 6; 25 mg/kg three times per week for week 7; and 25 mg/kg twice per week for weeks 8, 9, 10, 11, and 12. One control group, consisting of two male and three female monkeys, was injected subcutaneously with PBS according to the same dosing regimen. An additional experimental group, consisting of two male and three female monkeys, was injected subcutaneously with ISIS 416850 in a chronic, lower dose regimen. Antisense oligonucleotide was administered to the monkeys at 5 mg/kg three times per week for week 1; 5 mg/kg twice per week for week 2 and 3; 10 mg/kg three times per week for week 4; and 10 mg/kg twice per week for weeks 5 to 12. Body weights were measured weekly. Blood samples were collected 14 days and 5 days before the start of treatment and subsequently once per week for Factor 11 protein activity analysis in plasma, fibrinogen measurement, PT and aPTT measurements, bleeding times, and measurement of various hematologic factors. On day 85, the monkeys were euthanized by exsanguination while under deep anesthesia, and organs harvested for further analysis.
Blood samples were collected at various time points and Factor 11 proenzyme was measured using a F11 assay based on clotting time. Clotting times were determined in duplicate with a ST4 semi-automated coagulation instrument (Diagnostica Stago, NJ). Thirty μl of citrated sample plasma diluted 1/20 in HEPES-NaCl buffer with BSA was incubated with 30 μl aPTT reagent (Automated aPTT, Organon Technika, NC) and 30 μl of citrated plasma deficient of Factor 11 (George King Bio-Medical Inc.) at 37° C. for 5 min, followed by the addition of 30 μl of 25 mM CaCl2) to initiate clotting. Results were interpolated on a standard curve of serially diluted citrated control plasma.
Results are presented in Table 118 as percent inhibition of Factor 11 activity, relative to PBS control. The ISIS oligonucleotide, ISIS 416850, given with the chronic dose regimen is distinguished from the other oligonucleotides with an asterisk (*).

[2] = test system: platelet aggregation; test: Platelet aggregation assay, ADP and/or collagen (Example 45); format: in vivo, cynomolgus monkeys; settings: escalating dose regimen
Method: as §1
Platelet aggregation was initiated by adding 1 mmol/L ADP and/or 3 μg collagen (depending on the collection day, as outlined in Table 121) to plasma samples, and was allowed to proceed for 10 minutes. Aggregation was characterized by recording the change in the electrical resistance or impedance and the change in the initial slope of aggregation after platelet shape change. The aggregation test was performed twice per sample on each collection day and the average value was taken. The ISIS oligonucleotide, ISIS 416850, given with the chronic dose regimen is distinguished from the other oligonucleotides with an asterisk (*).

[3] = Liver function, ALT, AST, bilirubin in cynomolgus monkeys (Example 45); format: in vivo; settings: plasma, escalating dose regimen
Method: as §1
The ISIS oligonucleotide, ISIS 416850, given with the chronic dose regimen is distinguished from the other oligonucleotides with an asterisk (*).

[4] = mouse, in vivo
Method: A control group of five mice was injected subcutaneously with PBS for 2 weeks. All experimental groups (i.e. ASO treated mice at 2, 4, 6 weeks) were compared to the control group (i.e. PBS, 2 weeks).
Blood obtained from all mice groups were sent to Antech Diagnostics for hematocrit (HCT), mean corpuscular volume (MCV), mean corpuscular hemoglobin (MCH), and mean corpuscular hemoglobin concentration (MCHC) measurements and analyses, as well as measurements of the various blood cells, such as WBC (neutrophils, lymphocytes, and monocytes), RBC, and platelets, and total hemoglobin content.

[5] = Tolerability in Sprague-Dawley rats: hematology assays (Example 35); settings: 50 mg/kg s.c. twice per week for 6 weeks

Q: Which “percent inhibition of Factor 11 activity, relative to PBS control” value (shortened to “percent inhibition … relative to PBS control”) ([1]; day 8) does the source give for “ISIS 416838: MOE gapmer, nucleobases 1018 to 1042 of SEQ ID NO: 1 (Table 6) (antisense GCAACCGGGATGATGAGTGC; MOE gapmer, wing and gap sizes not given here)” here?
A: The value was 3%.

Q: And the “percent inhibition … relative to PBS control” value ([1]; day 15)?
A: Its value is 4%.

Q: And the “percent inhibition … relative to PBS control” value ([1]; day 22)?
A: The value was 5%.

Q: What about the “percent inhibition … relative to PBS control” value ([1]; day 29) of the same substance?
A: Its value is 8%.

Q: And the “percent inhibition … relative to PBS control” value ([1]; day 36)?
A: The value was 11%.

Q: And the “percent inhibition … relative to PBS control” value ([1]; day 43)?
A: The value was 5%.

Q: What about the “percent inhibition … relative to PBS control” value ([1]; day 50) of the same substance?
A: The value was 8%.

Q: And the “percent inhibition … relative to PBS control” value ([1]; day 57)?
A: The value was 10%.

Q: What about the “percent inhibition … relative to PBS control” value ([1]; day 64) of the same substance?
A: Its value is 11%.

Q: And the “percent inhibition … relative to PBS control” value ([1]; day 71)?
A: The value was 12%.

Q: What about the “percent inhibition … relative to PBS control” value ([1]; day 78) of the same substance?
A: Its value is 10%.

Q: And the “percent inhibition … relative to PBS control” value ([1]; day 85)?
A: Its value is 10%.

Q: What about the “percent inhibition … relative to PBS control” value ([1]; day −5) of the same substance?
A: The value was 0%.

Q: And the “percent inhibition … relative to PBS control” value ([1]; day −14)?
A: The value was 0%.

Q: What about the platelet aggregation ([2]; day 15 (with ADP)) of the same substance?
A: Its platelet aggregation is 15 Ohms.

Q: What about the platelet aggregation ([2]; day 36 (with ADP)) of the same substance?
A: The platelet aggregation was 8 Ohms.

Q: What about the platelet aggregation ([2]; day 43 (with collagen)) of the same substance?
A: Its platelet aggregation is 16 Ohms.

Q: And the platelet aggregation ([2]; day 57 (with ADP))?
A: The platelet aggregation was 7 Ohms.

Q: And the platelet aggregation ([2]; day 64 (with collagen))?
A: The platelet aggregation was 13 Ohms.

Q: What about the platelet aggregation ([2]; day 78 (with ADP)) of the same substance?
A: The platelet aggregation was 11 Ohms.

Q: What about the platelet aggregation ([2]; day 85 (with ADP)) of the same substance?
A: The platelet aggregation was 15 Ohms.

Q: And the platelet aggregation ([2]; day 85 (with collagen))?
A: The platelet aggregation was 24 Ohms.

Q: And the platelet aggregation ([2]; day −5 (with collagen))?
A: The platelet aggregation was 15 Ohms.

Q: And the ALT ([3]; day 22)?
A: Its ALT is 36 IU/L.

Q: And the AST ([3]; day 22)?
A: Its AST is 39 IU/L.

Q: And the Bilirubin ([3]; day 22)?
A: Its Bilirubin is 0.17 mg/dL.

Q: What about the ALT ([3]; day 43) of the same substance?
A: Its ALT is 35 IU/L.

Q: And the AST ([3]; day 43)?
A: The AST was 32 IU/L.

Q: And the Bilirubin ([3]; day 43)?
A: Its Bilirubin is 0.17 mg/dL.

Q: What about the ALT ([3]; day 64) of the same substance?
A: Its ALT is 40 IU/L.

Q: What about the AST ([3]; day 64) of the same substance?
A: The AST was 33 IU/L.

Q: And the Bilirubin ([3]; day 64)?
A: The Bilirubin was 0.15 mg/dL.

Q: What about the ALT ([3]; day 85) of the same substance?
A: Its ALT is 41 IU/L.

Q: And the AST ([3]; day 85)?
A: Its AST is 30 IU/L.

Q: What about the Bilirubin ([3]; day 85) of the same substance?
A: Its Bilirubin is 0.13 mg/dL.

Q: And the ALT ([3]; day −14)?
A: The ALT was 76 IU/L.

Q: What about the AST ([3]; day −14) of the same substance?
A: Its AST is 139 IU/L.

Q: And the Bilirubin ([3]; day −14)?
A: Its Bilirubin is 0.26 mg/dL.

Q: And the RBC count [4]?
A: Its RBC count is 8 cells/pL.

Q: What about the Platelets [5] of the same substance?
A: The Platelets was 27 10^3/μL.

Q: What about the RBC [5] of the same substance?
A: The RBC was 4.

Q: And the WBC [5]?
A: Its WBC is 13 nL⁻¹.

Q: And the lymphocytes [5]?
A: The lymphocytes was 3%.

Q: And the monocytes [5]?
A: Its monocytes is 6%.

Q: And the neutrophils [5]?
A: The neutrophils was 17%.

Q: What about the HCT ([5]; title says % control) of the same substance?
A: Its HCT is 5%.

Q: What about the MCH ([5]; title says % control) of the same substance?
A: The MCH was 2.

Q: What about the MCHC ([5]; title says % control) of the same substance?
A: The MCHC was 5%.

Q: And the MCV ([5]; title says % control)?
A: Its MCV is 4.
